Reference: US8818734B1, “Peptide ligands for sperm DNA fragmentation assay” (priority 2011, dated 2014)

Columns and labels:
Assay type in all cases: cell-based
human spermatozoa [1] = assay: Induction of double-strand DNA damage with Bleomycin: DW1 staining of ethanol-fixed slides, SCDt, neutral comet assay; conditions: 2 and 4 mg/ml Bleomycin, 3 h, 37° C., p<0.05
Description: Five human sperm samples were washed in PBS (220 g, 10 min), diluted to a concentration of 10×10^6 spermatozoa/ml in PBS (Fischer Scientific International, Pittsburgh, Pa., USA) and divided into three aliquots of 200 μl each, allowing a control group to be compared with the treated cells. To induce double-strand DNA damage, spermatozoa were incubated with 2 and 4 mg/ml of Bleomycin (Sigma, St Louis, Mo., USA) for 3 h at 37° C.
(§1) Control, H2O2 (0.03% and 0.3%) and Bleomycin (2 and 4 mg/ml)-treated sperm samples were used for this purpose. Ten fields per sample were captured as described above in the Fluorescence microscopy evaluation and image capture section using a fixed exposure time. A total of 300 sperm cells per slide were analysed.
A Mann-Whitney U test was used to detect significant differences in the frequencies of SDF calculated by SCDt and neutral comet assay between the control and each one of the treatments, 2 mg/ml and 4 mg/ml of bleomycin.

human spermatozoa [2] = assay: Induction of single-strand DNA damage with H2O2: DW1 staining of ethanol-fixed slides, SCDt, alkaline comet assay; conditions: 0.03 and 0.3% H2O2, 30 min, p<0.05
Description: Five human sperm samples were washed in PBS (220 g, 10 min), diluted to a concentration of 10×10^6 spermatozoa/ml in PBS (Fischer Scientific International, Pittsburgh, Pa., USA) and divided into three aliquots of 200 μl each, allowing a control group to be compared with the treated cells. To induce single-strand DNA damage (Yamamoto, 1969), spermatozoa were incubated with 0.03 and 0.3% H2O2 (Sigma, St Louis, Mo., USA) for 30 min at room temperature.
as §1
One way-ANOVA and Dunnett's Test for multiple comparisons with a single control were used to detect significant differences in the frequencies of SDF calculated by SCDt and alkaline comet assay between the control and each one of the treatments, 0.03% and 0.3% H2O2.

spermatozoa = assay: Access of TAT-modified DW1 to the cell interior; conditions: DW1 modified to include TAT peptide YGRKKRRQRRRG
Description: However, it is possible that different TAT configurations or the use of an alternative protein transduction domain might allow penetration into the cell interior. […] It is still possible that the peptide could be used to choose spermatozoa for fertilization using ICSI following removal of membranes using detergent. Previous studies have shown that sperm treated in this way remain fertilizations competent (Kasai et al., 1999). […] Electroporation is known not to inhibit sperm viability and ICSI procedures.

Bleomycin
frequency of sperm cells with fragmented DNA by SCDt (SCDt-SDF) and neutral comet assay (dsSDF) (human spermatozoa [1]): significantly increased

OO [H2O2, Hydrogen Peroxide]
frequency of sperm cells with fragmented DNA by SCDt (SCDt-SDF) and alkaline comet assay (ssSDF) (human spermatozoa [2]): significant increase

DW1 (SEQ ID NO:1) to include a TAT peptide: DW1 modified to include a TAT peptide (YGRKKRRQRRRG), a transduction sequence (GSRAHSSHLKSKKGQSTSRHKKYGRKKRRQRRRG; listed as Homo sapiens)
access to the cell interior (spermatozoa): failed to improve access to the cell interior
